Active and inactive are the calls of the source.
Assays:
[1] = Counterscreen for antagonists of the human trace amine associated receptor 1 (hTAAR1): Fluorescence-based cell-based high throughput dose response assay to identify nonselective Ga16 antagonists.; assay type: functional
[2] = Counterscreen for […] of the human trace amine associated receptor 1 (TAAR1): Fluorescence-based cell-based high throughput dose response assay to identify nonselective Ga16 agonists.; assay type: functional
Major prion protein = Major prion protein (Homo sapiens, UniProt P04156); assay type: functional, cell-based
cells [3] = test: cells
cells [4] = assay type: functional
[5] = target: 1-phosphatidylinositol 4,5-bisphosphate phosphodiesterase beta-3 (Homo sapiens, UniProt Q01970); test: Fluorescence-based biochemical high throughput dose response assay to identify inhibitors of phospholipase C isozymes (PLC-B3).
Sequence of 1-phosphatidylinositol 4,5-bisphosphate phosphodiesterase beta-3 (Q01970 whole entry): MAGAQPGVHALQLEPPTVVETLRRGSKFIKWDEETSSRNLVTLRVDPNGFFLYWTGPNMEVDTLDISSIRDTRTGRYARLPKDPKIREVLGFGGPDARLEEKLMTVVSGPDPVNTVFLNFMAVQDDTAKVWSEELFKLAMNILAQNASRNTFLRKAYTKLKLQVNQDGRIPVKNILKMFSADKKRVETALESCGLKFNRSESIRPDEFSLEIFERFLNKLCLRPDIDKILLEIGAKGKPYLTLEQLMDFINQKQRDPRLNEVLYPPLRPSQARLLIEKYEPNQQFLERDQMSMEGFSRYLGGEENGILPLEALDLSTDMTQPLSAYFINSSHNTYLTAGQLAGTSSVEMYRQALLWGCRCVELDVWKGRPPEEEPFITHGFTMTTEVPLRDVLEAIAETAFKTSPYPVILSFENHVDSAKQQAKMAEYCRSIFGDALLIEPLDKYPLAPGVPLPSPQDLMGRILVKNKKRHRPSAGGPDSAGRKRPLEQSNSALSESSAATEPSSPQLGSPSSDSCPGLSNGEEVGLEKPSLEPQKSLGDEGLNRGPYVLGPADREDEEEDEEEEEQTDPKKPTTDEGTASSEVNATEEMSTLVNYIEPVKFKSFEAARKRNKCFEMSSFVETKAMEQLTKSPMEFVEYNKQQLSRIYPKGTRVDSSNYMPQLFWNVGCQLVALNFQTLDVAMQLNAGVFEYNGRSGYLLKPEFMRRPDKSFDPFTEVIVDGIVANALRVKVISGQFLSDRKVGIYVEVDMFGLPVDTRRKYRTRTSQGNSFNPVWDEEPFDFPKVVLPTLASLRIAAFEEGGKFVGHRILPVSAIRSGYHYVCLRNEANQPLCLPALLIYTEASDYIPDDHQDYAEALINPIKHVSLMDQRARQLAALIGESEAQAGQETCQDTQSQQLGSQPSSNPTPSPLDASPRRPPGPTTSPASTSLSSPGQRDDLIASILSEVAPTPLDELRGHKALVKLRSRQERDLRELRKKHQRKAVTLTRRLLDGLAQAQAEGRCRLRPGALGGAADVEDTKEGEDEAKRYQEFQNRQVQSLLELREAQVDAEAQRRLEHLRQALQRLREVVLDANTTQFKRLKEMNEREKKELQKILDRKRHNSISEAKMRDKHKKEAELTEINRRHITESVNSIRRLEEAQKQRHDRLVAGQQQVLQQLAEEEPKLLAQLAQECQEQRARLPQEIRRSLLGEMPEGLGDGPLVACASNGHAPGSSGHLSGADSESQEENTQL

[6] = THP-1 cell cytotoxicity, dose response, cytotoxicity control for non-replicating M. tuberculosis project (AID 489025); assay type: functional
Protein RecA = target: T1, Protein RecA (Mycobacterium tuberculosis, UniProt P9WHJ3); test: Fluorescence Cell-Free Homogeneous Dose Retest to Identify Inhibitors of RecA-Intein Splicing Activity. [Related pubchem assays (depositor defined):AID2097, AID2223, AID489010, AID492950]; assay type: functional
T1 sequence (P9WHJ3 whole entry): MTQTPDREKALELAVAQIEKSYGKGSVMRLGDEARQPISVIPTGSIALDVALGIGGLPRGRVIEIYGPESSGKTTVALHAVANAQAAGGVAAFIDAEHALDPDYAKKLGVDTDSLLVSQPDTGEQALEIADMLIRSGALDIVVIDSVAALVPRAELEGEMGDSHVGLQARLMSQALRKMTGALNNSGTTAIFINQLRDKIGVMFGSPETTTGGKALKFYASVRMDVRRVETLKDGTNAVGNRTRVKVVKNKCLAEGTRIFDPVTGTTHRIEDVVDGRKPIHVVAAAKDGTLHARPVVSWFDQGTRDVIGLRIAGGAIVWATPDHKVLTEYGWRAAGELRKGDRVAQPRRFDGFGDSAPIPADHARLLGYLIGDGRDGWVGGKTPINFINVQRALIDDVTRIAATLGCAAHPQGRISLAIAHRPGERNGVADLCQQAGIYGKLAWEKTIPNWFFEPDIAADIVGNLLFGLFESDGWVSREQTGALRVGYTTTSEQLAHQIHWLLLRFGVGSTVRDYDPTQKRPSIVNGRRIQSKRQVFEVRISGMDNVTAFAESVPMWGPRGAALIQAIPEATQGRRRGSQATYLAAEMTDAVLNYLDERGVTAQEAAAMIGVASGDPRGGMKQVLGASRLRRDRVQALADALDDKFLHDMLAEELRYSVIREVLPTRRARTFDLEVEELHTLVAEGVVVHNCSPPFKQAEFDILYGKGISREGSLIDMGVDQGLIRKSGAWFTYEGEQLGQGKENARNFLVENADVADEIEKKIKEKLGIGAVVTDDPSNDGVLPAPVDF

[7] = target: T2, Replicative DNA helicase DnaB (Mycobacterium tuberculosis, UniProt P9WMR3); test: DnaB intein splicing inhibitors, dose response, biochemical, cell-free fluorescence (AID 449749); assay type: functional
T2 sequence (P9WMR3 whole entry): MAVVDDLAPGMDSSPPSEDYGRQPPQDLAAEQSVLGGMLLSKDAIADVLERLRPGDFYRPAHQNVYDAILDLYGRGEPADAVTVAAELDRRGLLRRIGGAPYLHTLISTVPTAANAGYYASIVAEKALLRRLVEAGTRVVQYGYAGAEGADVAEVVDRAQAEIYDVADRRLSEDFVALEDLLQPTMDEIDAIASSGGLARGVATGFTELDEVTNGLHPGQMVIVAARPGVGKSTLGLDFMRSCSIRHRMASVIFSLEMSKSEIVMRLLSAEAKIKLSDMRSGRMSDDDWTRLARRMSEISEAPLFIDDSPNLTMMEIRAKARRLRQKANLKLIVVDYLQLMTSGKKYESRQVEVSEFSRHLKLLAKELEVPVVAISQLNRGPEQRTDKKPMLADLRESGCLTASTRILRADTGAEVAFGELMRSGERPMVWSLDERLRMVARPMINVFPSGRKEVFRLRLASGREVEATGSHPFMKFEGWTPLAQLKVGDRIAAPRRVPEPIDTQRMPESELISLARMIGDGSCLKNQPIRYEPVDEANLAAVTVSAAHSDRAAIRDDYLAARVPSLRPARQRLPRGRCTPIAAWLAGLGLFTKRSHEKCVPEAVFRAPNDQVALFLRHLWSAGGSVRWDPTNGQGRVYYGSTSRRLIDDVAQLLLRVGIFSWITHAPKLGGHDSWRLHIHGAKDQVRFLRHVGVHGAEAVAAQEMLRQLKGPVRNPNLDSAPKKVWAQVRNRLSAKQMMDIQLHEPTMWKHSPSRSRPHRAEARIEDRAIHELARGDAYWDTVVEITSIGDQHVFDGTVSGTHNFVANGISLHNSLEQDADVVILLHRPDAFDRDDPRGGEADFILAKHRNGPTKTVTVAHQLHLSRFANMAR

[8] = target: 1-phosphatidylinositol 4,5-bisphosphate phosphodiesterase gamma-1 (Homo sapiens, UniProt P19174); test: Counterscreen for inhibitors of phospholipase C isozymes (PLC-B3): Fluorescence-based biochemical high throughput dose response assay to identify inhibitors of phospholipase C isozymes (PLC-gamma1).
Sequence of 1-phosphatidylinositol 4,5-bisphosphate phosphodiesterase gamma-1 (P19174 whole entry): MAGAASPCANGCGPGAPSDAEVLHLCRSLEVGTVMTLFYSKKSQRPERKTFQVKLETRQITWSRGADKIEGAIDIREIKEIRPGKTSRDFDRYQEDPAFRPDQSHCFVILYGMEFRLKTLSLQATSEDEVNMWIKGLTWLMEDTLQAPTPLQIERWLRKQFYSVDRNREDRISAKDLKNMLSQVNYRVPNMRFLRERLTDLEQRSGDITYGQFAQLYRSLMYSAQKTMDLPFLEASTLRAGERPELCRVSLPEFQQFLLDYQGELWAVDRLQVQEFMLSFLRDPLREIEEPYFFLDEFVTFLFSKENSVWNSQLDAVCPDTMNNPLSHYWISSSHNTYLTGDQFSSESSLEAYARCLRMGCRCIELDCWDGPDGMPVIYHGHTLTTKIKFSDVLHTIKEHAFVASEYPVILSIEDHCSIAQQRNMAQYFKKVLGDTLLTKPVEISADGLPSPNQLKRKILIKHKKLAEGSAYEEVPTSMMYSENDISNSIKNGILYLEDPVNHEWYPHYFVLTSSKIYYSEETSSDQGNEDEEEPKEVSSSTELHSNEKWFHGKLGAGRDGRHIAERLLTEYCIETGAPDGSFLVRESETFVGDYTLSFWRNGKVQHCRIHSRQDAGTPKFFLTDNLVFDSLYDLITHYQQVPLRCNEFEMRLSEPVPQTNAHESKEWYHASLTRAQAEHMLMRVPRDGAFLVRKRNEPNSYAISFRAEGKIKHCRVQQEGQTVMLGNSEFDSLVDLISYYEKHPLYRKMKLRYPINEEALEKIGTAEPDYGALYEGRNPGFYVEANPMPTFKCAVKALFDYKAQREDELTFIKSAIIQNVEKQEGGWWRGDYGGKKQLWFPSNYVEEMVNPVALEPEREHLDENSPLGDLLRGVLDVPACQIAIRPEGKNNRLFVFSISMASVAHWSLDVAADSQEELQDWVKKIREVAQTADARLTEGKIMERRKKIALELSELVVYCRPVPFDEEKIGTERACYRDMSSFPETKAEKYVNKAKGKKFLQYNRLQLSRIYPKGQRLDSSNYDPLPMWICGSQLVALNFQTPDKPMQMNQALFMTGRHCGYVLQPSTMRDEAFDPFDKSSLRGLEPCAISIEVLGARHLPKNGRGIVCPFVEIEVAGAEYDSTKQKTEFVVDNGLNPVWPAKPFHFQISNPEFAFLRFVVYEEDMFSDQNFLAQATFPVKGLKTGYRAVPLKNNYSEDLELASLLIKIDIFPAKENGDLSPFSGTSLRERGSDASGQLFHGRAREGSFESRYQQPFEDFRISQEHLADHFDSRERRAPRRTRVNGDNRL

[9] = microbe, parasite or virus in culture; assay type: functional; settings: Mycobacterium tuberculosis
[10] = target: Nuclear receptor subfamily 0 group B member 1 (Homo sapiens, UniProt P51843); assay type: functional, cell-based;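 also: HEK293T cells transfected with SF-1 and DAX-1 plus StAR promoter luciferase reporter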
Sequence of Nuclear receptor subfamily 0 group B member 1 (P51843 whole entry): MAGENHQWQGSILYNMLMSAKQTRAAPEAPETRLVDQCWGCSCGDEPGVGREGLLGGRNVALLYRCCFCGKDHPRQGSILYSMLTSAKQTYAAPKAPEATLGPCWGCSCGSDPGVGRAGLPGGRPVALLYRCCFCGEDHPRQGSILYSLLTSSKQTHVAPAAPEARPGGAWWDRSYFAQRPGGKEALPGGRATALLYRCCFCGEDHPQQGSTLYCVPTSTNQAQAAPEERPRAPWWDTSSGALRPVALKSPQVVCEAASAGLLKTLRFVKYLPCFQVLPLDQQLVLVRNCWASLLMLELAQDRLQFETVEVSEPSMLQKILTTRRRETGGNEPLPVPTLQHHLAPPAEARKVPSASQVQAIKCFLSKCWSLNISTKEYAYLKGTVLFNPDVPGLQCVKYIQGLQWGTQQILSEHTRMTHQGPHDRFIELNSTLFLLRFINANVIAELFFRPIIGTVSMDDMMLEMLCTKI

cells [11] = assay type: functional, cell-based
[12] = T. cruzi growth inhibition in host cells, dose response, cell-based, plate reader, dry powder, set 2 (AID 652275); assay type: functional
[13] = target: Tyrosyl-DNA phosphodiesterase 2 (Homo sapiens, UniProt O95551); test: potency against TDP2 phosphodiesterase activity – biochemical, epi absorbance, IC50, dose response (AID 743297)
Sequence of Tyrosyl-DNA phosphodiesterase 2 (O95551 whole entry): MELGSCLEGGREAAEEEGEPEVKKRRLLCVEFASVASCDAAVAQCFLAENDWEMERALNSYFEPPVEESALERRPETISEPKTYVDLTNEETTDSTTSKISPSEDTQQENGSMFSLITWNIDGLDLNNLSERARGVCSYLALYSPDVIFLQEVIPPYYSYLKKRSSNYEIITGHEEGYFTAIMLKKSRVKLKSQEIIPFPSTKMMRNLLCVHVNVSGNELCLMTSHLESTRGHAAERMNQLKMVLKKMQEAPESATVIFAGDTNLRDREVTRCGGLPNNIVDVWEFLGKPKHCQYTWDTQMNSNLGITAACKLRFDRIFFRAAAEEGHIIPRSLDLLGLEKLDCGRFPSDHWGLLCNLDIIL

BHK-21 = test: viability loss in BHK-21 cells – cell-based, plate reader, cherry-pick samples, cytotoxicity control, dose response (AID 687030); assay type: functional; settings: Mesocricetus auratus

With CC(=O)c1ccc(NC(=O)c2ccc(COc3ccccc3[N+](=O)[O-])o2)cc1 the IC50 [1] was > 29.9 µM (inactive) and the EC50 [2] was > 29.9 µM (inactive).
In the case of c1ccc2sc(Nc3nc4cc5c(cc4s3)OCO5)nc2c1, the IC50 (Major prion protein) is reported as 8.57 µM (active) and the IC50 (cells [3]) is reported as > 138 µM (inactive).
With Cc1c([N+](=O)[O-])cnc(Sc2ccccc2)c1[N+](=O)[O-] the IC50 (cells [4]) was 7.94 µM (active), the IC50 [5] was > 122 µM (inactive) and the CC50 [6] was 26.1 µM (active). For the same compound, the EC50 (Protein RecA) was 0.0479 µM (active), the AC50 [7] was 0.181 µM (active) and the IC50 [8] was > 122 µM (inactive). The CC50 [9] was 30.3 µM (active).
With C=C1CCCC2OC(CC3=CC4/C(C)=C/CC(C)CC(/C=C(\C)C(O)C5CC(O)C(O)C(CCC(O)/C=C/C(C)=C/CCC6=NCCC(C3)C64C)O5)OC(=O)CC3OC(C(O)C1)C(O)C3O)CC(O)C2O (stereo unspecified) the IC50 [10] was > 67.5 µM (inactive) and the IC50 (cells [11]) was > 67.5 µM (inactive).
With O=C(C1CCCC1)N1CCCCN2[C@@H](CO)[C@H](c3ccc(-c4cccc(F)c4)cc3)[C@@H]2C1 the AC50 [12] was 0.121 µM (active).
In the case of CCOc1ccc(NC2=CC(=O)C(=O)c3ccccc32)cc1, the IC50 [13] is reported as > 128 µM (inactive).
In the case of CCNC(=O)C[C@H]1CC[C@@H]2[C@H](COC[C@H](O)CN2Cc2ccc(Cl)c(Cl)c2)O1, the AC50 (BHK-21) is reported as 36.8 µM (active).
